{"source": "ChEMBL document CHEMBL2086381", "about": "“Identification of 4,5-dihydro-4-hydroxygeldanamycins as shunt products of geldanamycin biosynthesis” (J Nat Prod, 2012)", "note": "pIC50: −log10 of the molar value.", "data": [{"system": "HepG2", "assay": "Cytotoxicity against human HepG2 cells", "format": "functional, cell-based", "values": [{"compound": "COC1=C2C[C@@H](C)C[C@H](OC)[C@H](O)[C@@H](C)/C=C(\\C)[C@H](OC(N)=O)[C@@H](OC)/C=C\\C=C(/C)C(=O)NC(=CC1=O)C2=O", "note": "[GELDANAMYCIN]", "pIC50": 6.43}, {"compound": "COC1=C2C[C@@H](C)C[C@H](OC)[C@H](O)[C@@H](C)/C=C(\\C)[C@H](OC(N)=O)[C@@H](OC)C[C@@H](O)/C=C(\\C)C(=O)NC(=CC1=O)C2=O", "pIC50": 4.97}, {"compound": "COC1=C2C[C@@H](C)C[C@H](OC)[C@H](O)[C@@H](C)/C=C(\\C)[C@H](OC(N)=O)[C@@H](OC)C[C@H](O)/C=C(\\C)C(=O)NC(=CC1=O)C2=O", "pIC50": 4.98}]}]}
